# Earlier results as cited in US11642339B2 (THERAVANCE BIOPHARMA R&D IP, LLC, priority 2017, dated 2023).
# How the values were obtained:
# [1] = test system: patients with functional dyspepsia; settings: Japan, placebo 35%; cited from earlier work
# [2] = test system: patients on daily therapy; settings: long-term use; cited from earlier work
# [3] = test system: patients with functional dyspepsia; settings: after 4 weeks of treatment; placebo 12.7%; cited from earlier work
compound,measurement,setting,value
COc1cc(O)c(C(=O)Nc2nc(C(=O)NCCN(C(C)C)C(C)C)cs2)cc1OC [Acotiamide],patients with symptom improvement,[1],52%
CCN(CC)CCNC(=O)c1cc(Cl)c(N)cc1OC [metoclopramide],patients with adverse CNS effects,[2],up to 30%
O=C1[C@@H]2[C@H]3CC[C@H](C3)[C@@H]2C(=O)N1CCCCN1CCN(c2ncccn2)CC1 [tandospirone],response rate,[3],31.5%
